Assay results taken from patent US11274090B2, “P300/CBP HAT inhibitors” (Constellation Pharmaceuticals, Inc., priority 2018, dated 2022).

Columns and labels:
[1] = target: p300 HAT domain (residues 1287-1666) (Homo sapiens (Human), UniProt Q09472); assay: p300 HAT SPA assay (scintillation proximity assay, acetylation of biotinylated H3(1-21) peptide); type: biochemical; conditions: average of at least 2 replicate titrations
In short: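 Scintillation proximity readout of acetylated biotin-H3(1-21) captured on streptavidin plates after 1.5 hr at RT; enzyme was Ni2+/anion-exchange-purified HAT domain in 20 mM Hepes pH 7.5. Inhibitor IC50s calculated from the data.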

full length p300 = full length p300 (Homo sapiens (Human), UniProt Q09472); assay: full length p300 SPA assay; type: biochemical; conditions: average of at least 2 replicate titrations, read-out: FL P300 IC50
Procedure: Reactions were initiated with 12.5 μL 2 μM biotinylated H3(1-21) peptide (New England Peptide) and run for 1 hr at RT, then quenched with 20 μL stop solution (200 mM Tris pH 8.0, 200 mM EDTA, 2M NaCl, 160 μM anacardic acid). 35 μL of the reaction volume was transferred to a 384-well streptavidin FlashPlate (PerkinElmer) using a Bravo liquid handler (Velocity 11) and incubated for 1.5 hr at RT. Plates were aspirated, washed with 95 μL wash buffer (15 mM Tris pH 8.5, 0.069 μM Brij-35), aspirated, sealed, and scintillation counts read on a Topcount (PerkinElmer). Data were analyzed in Genedata to determine inhibitor IC50 values.
The full length p300 SPA assay was run following the same protocol as p300 HAT SPA assay, but used 6 nM purified full length p300 (purchased from Active Motif) in place of the purified p300-HAT domain.

Chain of p300 HAT domain (residues 1287-1666) (Q09472 1287-1666): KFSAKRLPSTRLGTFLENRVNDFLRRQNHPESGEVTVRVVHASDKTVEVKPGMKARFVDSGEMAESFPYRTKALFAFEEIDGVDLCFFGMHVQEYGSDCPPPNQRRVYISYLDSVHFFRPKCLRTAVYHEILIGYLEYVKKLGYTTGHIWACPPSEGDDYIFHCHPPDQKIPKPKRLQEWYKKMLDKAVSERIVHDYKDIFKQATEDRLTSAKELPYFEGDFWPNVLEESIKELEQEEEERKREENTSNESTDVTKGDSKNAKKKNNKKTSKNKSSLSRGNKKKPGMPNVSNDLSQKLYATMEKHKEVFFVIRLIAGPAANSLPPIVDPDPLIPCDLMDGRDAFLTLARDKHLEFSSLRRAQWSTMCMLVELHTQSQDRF
Chain of full length p300 (Q09472 whole entry): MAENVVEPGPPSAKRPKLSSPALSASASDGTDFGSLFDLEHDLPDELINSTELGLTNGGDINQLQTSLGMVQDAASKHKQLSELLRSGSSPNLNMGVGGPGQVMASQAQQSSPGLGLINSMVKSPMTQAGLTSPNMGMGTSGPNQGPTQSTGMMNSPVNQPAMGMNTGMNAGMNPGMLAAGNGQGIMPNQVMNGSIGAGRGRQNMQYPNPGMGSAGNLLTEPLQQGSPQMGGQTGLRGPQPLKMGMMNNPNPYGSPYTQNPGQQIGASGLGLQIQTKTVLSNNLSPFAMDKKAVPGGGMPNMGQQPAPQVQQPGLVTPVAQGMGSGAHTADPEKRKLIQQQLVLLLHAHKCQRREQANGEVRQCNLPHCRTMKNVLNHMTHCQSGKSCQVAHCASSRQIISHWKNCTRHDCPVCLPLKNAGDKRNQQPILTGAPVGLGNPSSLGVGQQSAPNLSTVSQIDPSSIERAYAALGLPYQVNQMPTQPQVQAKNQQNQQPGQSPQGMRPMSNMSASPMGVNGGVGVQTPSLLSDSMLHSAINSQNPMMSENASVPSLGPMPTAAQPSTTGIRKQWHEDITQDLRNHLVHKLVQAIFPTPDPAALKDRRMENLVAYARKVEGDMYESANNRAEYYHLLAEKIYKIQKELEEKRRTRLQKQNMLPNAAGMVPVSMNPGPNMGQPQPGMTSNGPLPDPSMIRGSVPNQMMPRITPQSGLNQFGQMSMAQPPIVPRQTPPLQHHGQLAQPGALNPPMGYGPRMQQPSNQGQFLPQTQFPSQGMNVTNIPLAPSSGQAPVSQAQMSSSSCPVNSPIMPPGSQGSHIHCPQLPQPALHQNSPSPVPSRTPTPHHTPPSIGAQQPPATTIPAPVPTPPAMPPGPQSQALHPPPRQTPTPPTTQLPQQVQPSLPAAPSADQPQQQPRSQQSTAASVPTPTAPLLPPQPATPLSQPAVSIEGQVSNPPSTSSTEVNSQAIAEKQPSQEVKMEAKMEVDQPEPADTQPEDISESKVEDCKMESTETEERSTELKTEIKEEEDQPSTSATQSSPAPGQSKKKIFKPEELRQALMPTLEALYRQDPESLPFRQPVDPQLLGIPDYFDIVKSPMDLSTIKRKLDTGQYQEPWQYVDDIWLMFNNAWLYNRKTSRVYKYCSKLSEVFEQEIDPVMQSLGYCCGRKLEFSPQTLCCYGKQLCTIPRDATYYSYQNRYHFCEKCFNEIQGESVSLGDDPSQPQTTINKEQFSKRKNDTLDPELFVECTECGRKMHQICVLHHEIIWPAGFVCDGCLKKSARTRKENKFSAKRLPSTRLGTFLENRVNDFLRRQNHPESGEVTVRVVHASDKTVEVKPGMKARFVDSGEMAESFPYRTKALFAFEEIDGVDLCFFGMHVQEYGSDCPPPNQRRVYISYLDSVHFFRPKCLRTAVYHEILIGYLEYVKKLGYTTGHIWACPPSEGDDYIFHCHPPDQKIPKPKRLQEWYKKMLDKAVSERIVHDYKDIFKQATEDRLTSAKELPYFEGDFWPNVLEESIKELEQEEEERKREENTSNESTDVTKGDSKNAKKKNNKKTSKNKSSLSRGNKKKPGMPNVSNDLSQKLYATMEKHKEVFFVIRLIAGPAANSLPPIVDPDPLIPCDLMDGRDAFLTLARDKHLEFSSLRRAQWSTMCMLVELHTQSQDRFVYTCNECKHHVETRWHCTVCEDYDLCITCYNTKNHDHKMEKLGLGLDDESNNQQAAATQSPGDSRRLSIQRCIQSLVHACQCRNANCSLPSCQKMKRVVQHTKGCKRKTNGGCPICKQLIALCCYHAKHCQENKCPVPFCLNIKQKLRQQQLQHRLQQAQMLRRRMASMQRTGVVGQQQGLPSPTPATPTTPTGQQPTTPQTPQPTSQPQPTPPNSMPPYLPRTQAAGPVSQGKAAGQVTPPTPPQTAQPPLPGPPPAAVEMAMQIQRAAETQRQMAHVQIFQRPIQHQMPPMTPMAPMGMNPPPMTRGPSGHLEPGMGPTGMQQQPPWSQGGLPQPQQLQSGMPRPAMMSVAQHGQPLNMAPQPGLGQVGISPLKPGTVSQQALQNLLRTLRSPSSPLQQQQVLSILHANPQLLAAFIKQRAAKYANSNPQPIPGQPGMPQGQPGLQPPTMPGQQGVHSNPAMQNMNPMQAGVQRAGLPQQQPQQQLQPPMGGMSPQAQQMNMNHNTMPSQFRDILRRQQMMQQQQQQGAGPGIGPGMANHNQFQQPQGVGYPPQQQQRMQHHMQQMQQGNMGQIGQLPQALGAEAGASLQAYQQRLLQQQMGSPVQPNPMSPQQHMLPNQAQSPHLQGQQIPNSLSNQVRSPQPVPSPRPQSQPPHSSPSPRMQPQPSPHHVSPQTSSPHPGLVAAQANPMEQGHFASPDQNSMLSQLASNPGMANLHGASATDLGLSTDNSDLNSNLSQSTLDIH

| IC50 [1] | IC50 (full length p300) | Molecule |
| --- | --- | --- |
| 376 nM | 13.4 nM | N#Cc1ccc(CCNC(C(=O)Nc2ccc(-c3cn[nH]c3)cn2)c2ccccc2)cc1 (single isomer, unassigned) [7 Isomer 2] |
| > 5000 nM | 273 nM | Cn1cnc(-c2ccc(NC(=O)C(NCCc3ccc(C#N)cc3)c3ccccc3)nc2)c1 (single isomer, unassigned) [13 Isomer 1] |
| > 5000 nM | 176 nM | Cn1ccc(-c2ccc(NC(=O)C(NCCc3ccc(C#N)cc3)c3ccccc3)nc2)n1 (single isomer, unassigned) [14 Isomer 1] |
| 41.3 nM | 1.5 nM | Cc1ccc(-c2ccc(NC(=O)C(NCC(C)c3ccc(C#N)cc3)c3ccccc3)nc2)nn1 (single isomer, unassigned) [15 Isomer 4] |
| 1590 nM | 40.1 nM | COc1cc(NC(=O)C(NCCc2ccc(C#N)cc2)c2ccccc2)ccc1-c1cnn(C)c1 (single isomer, unassigned) [25 Isomer 1] |
| 2830 nM | 24 nM | Cc1cn(-c2ccc(NC(=O)C(NCCc3ccc(C#N)cc3)c3ccccc3)nc2)cn1 (single isomer, unassigned) [28 Isomer 2] |
| 71.4 nM | 2.57 nM | COC1CN(c2ccc(NC(=O)C(NCCc3ccc(C#N)cc3)c3ccccc3)nc2)C1 (single isomer, unassigned) [31 Isomer 1] |
| > 5000 nM | 167 nM | COC1CN(c2ccc(NC(=O)C(NCCc3ccc(C#N)cc3)c3ccccc3)nc2)C1 (single isomer, unassigned) [31 Isomer 2] |
| > 5000 nM | 7250 nM | N#Cc1ccc(CCNC(C(=O)Nc2ccc(-c3ccccc3)cn2)c2ccccc2)cc1 (single isomer, unassigned) [34 Isomer 1] |
| 361 nM | 11 nM | N#Cc1ccc(CCNC(C(=O)Nc2ccc(-c3ccccc3)cn2)c2ccccc2)cc1 (single isomer, unassigned) [34 Isomer 2] |
| > 2000 nM | 278 nM | CN1CCN(c2ccc(NC(=O)C(NCCc3ccc(C#N)cc3)c3ccccc3)nc2)CC1=O (single isomer, unassigned) [44 Isomer 1] |
| 41.6 nM | 2.66 nM | CN1CCN(c2ccc(NC(=O)C(NCCc3ccc(C#N)cc3)c3ccccc3)nc2)CC1=O (single isomer, unassigned) [44 Isomer 2] |
| 26 nM | 1.46 nM | CN1CCN(c2ccc(NC(=O)C(NCCc3ccc(Cl)cc3)c3ccccc3)nc2)CC1=O (single isomer, unassigned) [45 Isomer 1] |
| 1020 nM | 43.1 nM | CN1CCN(c2ccc(NC(=O)C(NCCc3ccc(Cl)cc3)c3ccccc3)nc2)CC1=O (single isomer, unassigned) [45 Isomer 2] |
| 1560 nM | 31.8 nM | Cc1ccc(CCNC(C(=O)Nc2ccc(-c3cnn(C)c3)cn2)c2ccccc2)cc1 (single isomer, unassigned) [48 Isomer 2] |
| 121 nM | 5.16 nM | COC1(C)CCN(c2ccc(NC(=O)C(NCCc3ccc(C#N)cc3)c3ccccc3)nc2)CC1 (single isomer, unassigned) [53 Isomer 1] |
| > 2000 nM | > 1000 nM | COC1(C)CCN(c2ccc(NC(=O)C(NCCc3ccc(C#N)cc3)c3ccccc3)nc2)CC1 (single isomer, unassigned) [53 Isomer 2] |
| 2410 nM | 120 nM | Cc1ccn(-c2ccc(NC(=O)C(NCC(C)c3ccc(C#N)cc3)c3ccccc3)nc2)n1 (single isomer, unassigned) [61 Isomer 1] |
| > 5000 nM | 123 nM | Cc1ccn(-c2ccc(NC(=O)C(NCC(C)c3ccc(C#N)cc3)c3ccccc3)nc2)n1 (single isomer, unassigned) [61 Isomer 2] |
| 31.5 nM | < 2 nM | Cc1ccn(-c2ccc(NC(=O)C(NCC(C)c3ccc(C#N)cc3)c3ccccc3)nc2)n1 (single isomer, unassigned) [61 Isomer 3] |
| 1340 nM | 68.5 nM | Cc1ccn(-c2ccc(NC(=O)C(NCC(C)c3ccc(C#N)cc3)c3ccccc3)nc2)n1 (single isomer, unassigned) [61 Isomer 4] |
| 783 nM |  | Cc1cc(C#N)nn1CCNC(C(=O)Nc1ccc(-c2cnn(C)c2)cn1)c1ccccc1 (single isomer, unassigned) [145 Isomer 1] |
| > 2000 nM |  | Cc1cc(C#N)nn1CCNC(C(=O)Nc1ccc(-c2cnn(C)c2)cn1)c1ccccc1 (single isomer, unassigned) [145 Isomer 2] |
| 993 nM |  | CNC(=O)Cn1cc(-c2ccc(NC(=O)C(NC[C@@H](C)c3ccc(C#N)cc3)c3ccccc3)nc2)cn1 (single isomer, unassigned) [146 Isomer 1] |

| IC50 [1] | IC50 (full length p300) | Molecule |
| --- | --- | --- |
| 7.76 nM |  | CNC(=O)Cn1cc(-c2ccc(NC(=O)C(NC[C@@H](C)c3ccc(C#N)cc3)c3ccccc3)nc2)cn1 (single isomer, unassigned) [146 Isomer 2] |
| 1880 nM |  | C[C@H](CNC(C(=O)Nc1ccc(-c2cnn(CC(N)=O)c2)cn1)c1ccccc1)c1ccc(C#N)cc1 (single isomer, unassigned) [147 Isomer 1] |
| 6.16 nM |  | C[C@H](CNC(C(=O)Nc1ccc(-c2cnn(CC(N)=O)c2)cn1)c1ccccc1)c1ccc(C#N)cc1 (single isomer, unassigned) [147 Isomer 2] |
| 140 nM |  | Cn1cc(-c2ccc(NC(=O)C(NCCc3ccc(Cl)cc3)c3cnn(C)c3)nc2)cn1 (single isomer, unassigned) [148 Isomer 2] |
| > 2000 nM |  | Cn1cc(-c2ccc(NC(=O)C(NCC(c3ccc(C#N)cc3)C(F)(F)F)c3ccccc3)nc2)cn1 (single isomer, unassigned) [149 Isomer 1] |
| 647 nM |  | Cn1cc(-c2ccc(NC(=O)C(NCC(c3ccc(C#N)cc3)C(F)(F)F)c3ccccc3)nc2)cn1 (single isomer, unassigned) [149 Isomer 3] |
| > 2000 nM |  | Cn1cc(-c2ccc(NC(=O)C(NCC(c3ccc(C#N)cc3)C(F)(F)F)c3ccccc3)nc2)cn1 (single isomer, unassigned) [149 Isomer 4] |
| > 2000 nM |  | Cc1ncc(C(C)CNC(C(=O)Nc2ccc(-c3cnn(C)c3)cn2)c2ccccc2)cn1 (single isomer, unassigned) [150 Isomer 1] |
| > 2000 nM |  | Cc1ncc(C(C)CNC(C(=O)Nc2ccc(-c3cnn(C)c3)cn2)c2ccccc2)cn1 (single isomer, unassigned) [150 Isomer 2] |
| > 2000 nM |  | Cc1ncc(C(C)CNC(C(=O)Nc2ccc(-c3cnn(C)c3)cn2)c2ccccc2)cn1 (single isomer, unassigned) [150 Isomer 3] |
| 622 nM |  | Cc1ncc(C(C)CNC(C(=O)Nc2ccc(-c3cnn(C)c3)cn2)c2ccccc2)cn1 (single isomer, unassigned) [150 Isomer 4] |
| > 5000 nM |  | Cn1cc(-c2ccc3c(c2)CCCN3C(=O)[C@@H](NCCc2ccc(C#N)cc2)c2ccccc2)cn1 (single isomer, unassigned) [151 Isomer 1] |
| > 5000 nM |  | Cn1cc(-c2ccc3c(c2)CCCN3C(=O)[C@@H](NCCc2ccc(C#N)cc2)c2ccccc2)cn1 (single isomer, unassigned) [151 Isomer 2] |
| > 60000 nM |  | NS(=O)(=O)c1ccc(CCN[C@H](C(=O)N2CCc3ccccc32)c2ccccc2)cc1 (single isomer, unassigned) [153 Isomer 1] |
| 1930 nM |  | NS(=O)(=O)c1ccc(CCN[C@H](C(=O)N2CCc3ccccc32)c2ccccc2)cc1 (single isomer, unassigned) [153 Isomer 2] |
| 1680 nM |  | Cc1ncc(-c2ccc(NC(=O)[C@@H](NC[C@@H](C)c3ccc(C#N)cc3)c3ccccc3)nc2)cn1 (single isomer, unassigned; isomer 1) [6 Isomer 1] |
| > 2000 nM |  | Cc1ncc(-c2ccc(NC(=O)[C@@H](NC[C@H](C)c3ccc(C#N)cc3)c3ccccc3)nc2)cn1 (single isomer, unassigned; isomer 2) [6 Isomer 2] |
| > 5000 nM |  | CN1CCN(c2ccc(NC(=O)[C@H](NCCc3ccc(C#N)cc3)c3ccccc3)cc2)CC1 (single isomer, unassigned; isomer 2) [18 Isomer 2] |
| > 2000 nM |  | Cc1ncc(-c2ccc(NC(=O)[C@H](NC[C@@H](C)c3ccc(C#N)cc3)c3ccccc3)nc2)cn1 (single isomer, unassigned; isomer 3) [6 Isomer 3] |
| 20.9 nM |  | Cc1ncc(-c2ccc(NC(=O)[C@H](NC[C@H](C)c3ccc(C#N)cc3)c3ccccc3)nc2)cn1 (single isomer, unassigned; isomer 4) [6 Isomer 4] |
| 1800 nM |  | (R, S)- and (S, S)-2-((2- (4- cyanophenyl)propyl)ami- no)-N-(5-(1,3-dimethyl- 1H-pyrazol-4-yl)pyridin- 2-yl)-2-phenylacetamide [113 Isomer 1] |
| 925 nM |  | (S,R)-, (R,S)-, (S,S)-, (R,R)-(2-((2-(4-cyanophenyl)propyl)amino)-N-(5-(1-(difluoromethyl)-1H-pyrazol-4-yl)pyridin-2-yl)-2-phenylacetamide [20 Isomer 1] |
| 1630 nM |  | (S,R)-, (R,S)-, (S,S)-, (R,R)-(2-((2-(4-cyanophenyl)propyl)amino)-N-(5-(1-(difluoromethyl)-1H-pyrazol-4-yl)pyridin-2-yl)-2-phenylacetamide [20 Isomer 3] |
| > 2000 nM |  | (S,R)-, (R,S)-, (S,S)-, (R,R)-(2-((2-(4-cyanophenyl)propyl)amino)-N-(5-(1-(difluoromethyl)-1H-pyrazol-4-yl)pyridin-2-yl)-2-phenylacetamide [20 Isomer 4] |
